Values of other authors, collected in US9750250B2, “Conjugated polyelectrolytes and methods of using the same” (STC.UNM, priority 2015, dated 2017).

Details: deuterated methanol

SMILES: CC(=O)c1ccc2ccccc2c1 [2′-acetonaphthone]
- singlet oxygen quantum yield ΦΔ of the standard: 0.79±0.02
